From patent publication US20230210790A1, “GEL FOR USE IN GASTROINTESTINAL ENDOSCOPY AND ENDODERMAL, EPIDERMAL, AND OTHER MUCOSAL USES” (The Johns Hopkins University, priority 2020, published 2023)

Test system: bleeding ulcers in a live porcine model
Experiment: In vivo bleeding control by injectable gel, porcine bleeding model
Parameters: species or system Yorkshire pigs
Settings: 5 mL injected adjacent to bleeding ulcer
Procedure: To test the efficacy of epinephrine gels for bleeding control, a porcine bleeding model was created.
After ulcer creation, gel formulations or saline (negative control), epinephrine 1:10,000 (positive control) of 5 mL each were injected adjacent to the bleeding ulcer.

CNC[C@H](O)c1ccc(O)c(O)c1 [Epinephrine 1:10,000, Epinephrine]
No: Time at 5 min, bleeding present | Time at 10 min, bleeding present | Time at 15 min, bleeding present
